Test results: article PMC9780942, “Antimicrobial Activity and Immunomodulatory Properties of Acidocin A, the Pediocin-like Bacteriocin with the Non-Canonical Structure” (Membranes, 2022)
Positions of bridges follow the written chain, without caps; N, C: chain ends. No end group written: not given here.

Tests used:
S. aureus 209P = format: cell-based; settings: 24 h
Protocol: (§1) Antibacterial activity of recombinant bacteriocins against a number of Gram-positive and Gram-negative bacteria (Table S2) was determined by the method of two-fold serial dilutions in a liquid medium. Two-fold serial dilutions of bacteriocins were prepared in sterile 96-well flat-bottom polystyrene microplates (Eppendorf, Hamburg, Germany) (Cat. No. 0030730.011) in a volume of 50 µL of sterile 0.1% bovine serum albumin (BSA) (SERVA Electrophoresis GmbH, Heidelberg, Germany) to prevent non-specific sorption of peptides to the surface of the plate wells [23]. Mid-log phase bacterial cultures were diluted with the 2x Mueller-Hinton broth (MHB) (Sigma-Aldrich, St. Louis, MO, USA) to a final cell concentration of 10^6 colony forming units (CFU) per mL. To determine the activity of bacteriocins against Listeria and Enterococci, 3% tryptic soy broth (TSB) (Merck-Millipore, Burlington, MA, USA) was used instead of MHB. Aliquots of 50 μL of diluted bacterial suspensions were added to each well of the plate, which was then incubated at 37 °C and 950 rpm for 24 h using thermostatable plate shaker PST-60HL-4 (Biosan, Riga, Latvia). As a negative control, 50 µL of the sterile growth medium (2xMHB or 6% TSB) was added to the wells containing 50 µL of 0.1% BSA. The values of the minimum inhibitory concentrations (MIC) were determined as the minimum concentration of the peptide, at which there was no visible growth of bacterial culture. Incubation for 2 h with 20 µg/mL chromogenic substrate resazurin (Sigma-Aldrich, St. Louis, MO, USA) was used to detect viable bacterial cells if they were difficult to visually detect. To study the effect of inorganic salts on the antimicrobial activity of bacteriocins, antibacterial activity assay was carried out in MHB medium supplemented with 0.9% NaCl.

B. subtilis B-886 = format: cell-based; settings: B-886, 24 h
Protocol: as §1

B. licheniformis B-511 = format: cell-based; settings: 24 h
Protocol: as §1

M. phlei Ac-1221 = format: cell-based; settings: 24 h
Protocol: as §1

E. coli ML-35p = format: cell-based; settings: 24 h
Protocol: as §1

[1] = system: P. aeruginosa MDR CI 1995; format: cell-based; settings: MDR CI 1995, 24 h
Protocol: as §1

M. luteus Ac-2229 = format: cell-based; settings: Ac-2229, 24 h
Protocol: as §1

E. coli ATCC 25922 = format: cell-based; settings: ATCC 25922, 24 h
Protocol: as §1

A. baumannii XDR CI 2675 = format: cell-based; settings: XDR CI 2675, 24 h
Protocol: as §1

E. coli SQ110 = format: cell-based; settings: SQ110, 24 h
Protocol: as §1

E. coli XDR CI 1057 = format: cell-based; settings: XDR CI 1057, 24 h
Protocol: as §1

L. lactis MK66 = format: cell-based; settings: MK66, 24 h
Protocol: as §1

[2] = system: E. coli ML-35p outer membrane; assay: Outer membrane permeability assay with nitrocefin; format: cell-based; settings: PBS pH 7.4 with NaCl, 35 °C, absorbance 492 nm, three independent experiments
Protocol: (§2) The ability of the peptides to disrupt the integrity of bacterial membranes was assessed using chromogenic substrates that are unable to enter the intact cell. For these assays, E. coli strain ML-35p was chosen that constitutively expresses β-lactamase (secreted into the periplasmic space), β-galactosidase (that is active in cytoplasm), and lacks lactose permease. Nitrocefin, which is a substrate for lactamase, served as an indicator of increased outer membrane permeability. o-Nitrophenyl-β-D-galactopyranoside (ONPG), a substrate for […], was used to assess the integrity of the cytoplasmic membrane. The bacterial cultures were grown to stationary phase in 3% TSB medium at 37 °C overnight. The cells were washed three times with cold 10 mM phosphate-buffered saline (PBS), pH 7.4 ([…], 2.7 mM KCl, 10 mM Na2HPO4, 1.76 mM KH2PO4), and diluted to the concentration of 3.3 × 10^7 CFU/mL with 10 mM PBS (pH 7.4), containing increased concentration of NaCl (1.2%, or 205 mM) and dissolved nitrocefin (Merck-Millipore, Burlington, MA, USA) or ONPG (AppliChem GmbH, Darmstadt, Germany). […] The plate was incubated at 35 °C, 500 rpm, and the absorbance of the hydrolysis products of ONPG or nitrocefin was measured spectrophotometrically at regular intervals at 405 nm or 492 nm, respectively, using AF2200 microplate reader (Eppendorf, Hamburg, Germany). […]

L. lactis MK43 = assay: Antibacterial activity assay (MIC), two-fold serial dilutions in liquid medium; format: cell-based; settings: for Minimum Inhibitory Concentration: MHB, 0.1% BSA, 37 °C, 24 h, no visible growth; for Minimum inhibitory concentration in the presence of NaCl: MHB supplemented with 0.9% NaCl
Protocol: as §1

L. monocytogenes EGD = format: cell-based, Listeria monocytogenes; settings: 24 h
Protocol: as §1

[3] = system: E. coli ML-35p cytoplasmic membrane; assay: Cytoplasmic membrane permeability assay with ONPG; format: cell-based; settings: PBS pH 7.4 with NaCl, 35 °C, absorbance 405 nm, three independent experiments
Protocol: as §2

tested bacterial strains = assay: Antibacterial activity assay (MIC), average change over the tested strains; format: cell-based
Protocol: as §1, with “As a negative control, 50 µL of the sterile growth medium (2xMHB or 6% TSB) was added to the wells containing 50 µL of 0.1% BSA.” left out, “Incubation for 2 h with 20 µg/mL chromogenic substrate resazurin (Sigma-Aldrich, St. Louis, MO, USA) was used to detect viable bacterial cells if they were difficult to visually detect. To study the effect of inorganic salts on the antimicrobial activity of bacteriocins, antibacterial activity assay was carried out in MHB medium supplemented with 0.9% NaCl.” left out

## KTYYGTNGVHCTKNSLWGKVRLKNVKYDQNTTYIGRLQDILLGWATGAFGKTFH [OR-7(VI)]
S. aureus 209P
  Minimum Inhibitory Concentration: >32 µM
B. subtilis B-886
  Minimum Inhibitory Concentration: 16 µM
  Minimum inhibitory concentration in the presence of NaCl: > 32 µM
B. licheniformis B-511
  Minimum Inhibitory Concentration: 8 µM
  Minimum inhibitory concentration in the presence of NaCl: > 32 µM
M. phlei Ac-1221
  Minimum Inhibitory Concentration: 32 µM
E. coli ML-35p
  Minimum Inhibitory Concentration: >32 µM
[1]
  Minimum Inhibitory Concentration: >32 µM
M. luteus Ac-2229
  Minimum Inhibitory Concentration: >32 µM
E. coli ATCC 25922
  Minimum Inhibitory Concentration: >32 µM
A. baumannii XDR CI 2675
  Minimum Inhibitory Concentration: >32 µM
E. coli SQ110
  Minimum Inhibitory Concentration: >64 µM
E. coli XDR CI 1057
  Minimum Inhibitory Concentration: >64 µM
L. lactis MK66
  Minimum Inhibitory Concentration: 4 µM
  Minimum inhibitory concentration in the presence of NaCl: > 32 µM
[2]
  Effect on outer membrane integrity (nitrocefin hydrolysis kinetics): reduced
L. lactis MK43
  Minimum Inhibitory Concentration: >32 µM
L. monocytogenes EGD
  Minimum Inhibitory Concentration: >64 µM

## TYYGTNGVSCNKKGCSVDWGKAISIIGNNSAANLATGGAAGWKS (disulfide 10-15) [AviA(T)]
S. aureus 209P
  Minimum Inhibitory Concentration: >32 µM
B. subtilis B-886
  Minimum Inhibitory Concentration: >32 µM
B. licheniformis B-511
  Minimum Inhibitory Concentration: >32 µM
M. phlei Ac-1221
  Minimum Inhibitory Concentration: >32 µM
E. coli ML-35p
  Minimum Inhibitory Concentration: >32 µM
[1]
  Minimum Inhibitory Concentration: >32 µM
M. luteus Ac-2229
  Minimum Inhibitory Concentration: >32 µM
E. coli ATCC 25922
  Minimum Inhibitory Concentration: >32 µM
A. baumannii XDR CI 2675
  Minimum Inhibitory Concentration: >32 µM
E. coli SQ110
  Minimum Inhibitory Concentration: >32 µM
E. coli XDR CI 1057
  Minimum Inhibitory Concentration: >32 µM
L. lactis MK66
  Minimum Inhibitory Concentration: >32 µM
[3]
  Effect on cytoplasmic membrane integrity (ONPG hydrolysis kinetics): melittin >> acidocin A ≈ pediocin box mutants > peptides without a disulfide bond > avicin A >> AviA(T)
[2]
  Effect on outer membrane integrity (nitrocefin hydrolysis kinetics): with the exception of AviA(T), were able to disrupt its integrity
L. lactis MK43
  Minimum Inhibitory Concentration: >32 µM
L. monocytogenes EGD
  Minimum Inhibitory Concentration: >32 µM

## KTYYGNGVHCTKKSLWGKVRLKNVIPGTLSRKQSLPIKQDLKILLGWATGAFGKTFH [AcdA(dT,C31S)]
S. aureus 209P
  Minimum Inhibitory Concentration: 32 µM
B. subtilis B-886
  Minimum Inhibitory Concentration: 4 µM
  Minimum inhibitory concentration in the presence of NaCl: > 32 µM
B. licheniformis B-511
  Minimum Inhibitory Concentration: 4 µM
  Minimum inhibitory concentration in the presence of NaCl: > 32 µM
M. phlei Ac-1221
  Minimum Inhibitory Concentration: 4 µM
E. coli ML-35p
  Minimum Inhibitory Concentration: 8 µM
  Minimum inhibitory concentration in the presence of NaCl: 32 µM
[1]
  Minimum Inhibitory Concentration: >32 µM
M. luteus Ac-2229
  Minimum Inhibitory Concentration: 16 µM
E. coli ATCC 25922
  Minimum Inhibitory Concentration: 8 µM
A. baumannii XDR CI 2675
  Minimum Inhibitory Concentration: 16 µM
E. coli SQ110
  Minimum Inhibitory Concentration: 8 µM
  Minimum inhibitory concentration in the presence of NaCl: 16 µM
E. coli XDR CI 1057
  Minimum Inhibitory Concentration: 16 µM
L. lactis MK66
  Minimum Inhibitory Concentration: 1 µM
  Minimum inhibitory concentration in the presence of NaCl: > 32 µM
Tested bacterial strains
  Increase of MIC values on average compared to AcdA(dT) and acidocin A: 2–4 fold
L. lactis MK43
  Minimum inhibitory concentration in the presence of NaCl: > 32 µM
  Minimum Inhibitory Concentration: 2 µM
L. monocytogenes EGD
  Minimum Inhibitory Concentration: >32 µM

## KTYYGNGVHSTKKSLWGKVRLKNVIPGTLCRKQSLPIKQDLKILLGWATGAFGKTFH [AcdA(dT,C11S)]
S. aureus 209P
  Minimum Inhibitory Concentration: 32 µM
B. subtilis B-886
  Minimum Inhibitory Concentration: 4 µM
  Minimum inhibitory concentration in the presence of NaCl: > 32 µM
B. licheniformis B-511
  Minimum Inhibitory Concentration: 4 µM
  Minimum inhibitory concentration in the presence of NaCl: > 32 µM
M. phlei Ac-1221
  Minimum Inhibitory Concentration: 4 µM
E. coli ML-35p
  Minimum Inhibitory Concentration: 4 µM
  Minimum inhibitory concentration in the presence of NaCl: 32 µM
[1]
  Minimum Inhibitory Concentration: >32 µM
M. luteus Ac-2229
  Minimum Inhibitory Concentration: 16 µM
E. coli ATCC 25922
  Minimum Inhibitory Concentration: 8 µM
A. baumannii XDR CI 2675
  Minimum Inhibitory Concentration: 8 µM
E. coli SQ110
  Minimum Inhibitory Concentration: 4 µM
  Minimum inhibitory concentration in the presence of NaCl: 16 µM
E. coli XDR CI 1057
  Minimum Inhibitory Concentration: 16 µM
L. lactis MK66
  Minimum Inhibitory Concentration: 1 µM
  Minimum inhibitory concentration in the presence of NaCl: > 32 µM
Tested bacterial strains
  Increase of MIC values on average compared to AcdA(dT) and acidocin A: 2–4 fold
L. lactis MK43
  Minimum inhibitory concentration in the presence of NaCl: > 32 µM
  Minimum Inhibitory Concentration: 4 µM
L. monocytogenes EGD
  Minimum Inhibitory Concentration: >32 µM

## KTYYGNGVHSTKKSLWGKVRLKNVIPGTLSRKQSLPIKQDLKILLGWATGAFGKTFH [AcdA(dT,C11S,C31S)]
S. aureus 209P
  Minimum Inhibitory Concentration: >32 µM
B. subtilis B-886
  Minimum Inhibitory Concentration: 4 µM
  Minimum inhibitory concentration in the presence of NaCl: > 32 µM
B. licheniformis B-511
  Minimum Inhibitory Concentration: 4 µM
  Minimum inhibitory concentration in the presence of NaCl: > 32 µM
M. phlei Ac-1221
  Minimum Inhibitory Concentration: 8 µM
E. coli ML-35p
  Minimum Inhibitory Concentration: >64 µM
[1]
  Minimum Inhibitory Concentration: >32 µM
M. luteus Ac-2229
  Minimum Inhibitory Concentration: 32 µM
E. coli ATCC 25922
  Minimum Inhibitory Concentration: >64 µM
A. baumannii XDR CI 2675
  Minimum Inhibitory Concentration: >32 µM
E. coli SQ110
  Minimum Inhibitory Concentration: 16 µM
  Minimum inhibitory concentration in the presence of NaCl: > 32 µM
E. coli XDR CI 1057
  Minimum Inhibitory Concentration: >64 µM
L. lactis MK66
  Minimum Inhibitory Concentration: 1 µM
  Minimum inhibitory concentration in the presence of NaCl: > 32 µM
L. lactis MK43
  Minimum inhibitory concentration in the presence of NaCl: > 32 µM
  Minimum Inhibitory Concentration: 4 µM
L. monocytogenes EGD
  Minimum Inhibitory Concentration: >32 µM
